Patent US20100197743A1, “Use of sulphur-containing heteroaromatic acid analogues” (Bayer CropScience AG, priority 2008, published 2010)

Tested on: black Sigatoka fungus Mycosphaerella figiensis
Assay: Field study of black Sigatoka control on Cavendish bananas (Stover method)
Format: in vivo, Mycosphaerella figiensis on Cavendish bananas
Parameters: key to YLI last determ. (youngest infected leaf): leaf number of youngest leaf showing Sigatoka symptoms; YLI AUDPC / SEV AUDPC: unit not given here
Conditions: for SEV last determ. (severity of the disease) / YLI last determ. (youngest infected leaf): foliar spray, eight applications at seven-day intervals, last determination Oct. 23, 2008; for SEV ABBOTT: % severity calculated as described by ABBOTT; for SEV AUDPC / YLI AUDPC: area under the disease progress curve over the complete study period
Source text: If the banana disease caused by the black Sigatoka fungus Mycosphaerella figiensis is not controlled, the latter can destroy the banana leaves and greatly reduce the yield. To control Sigatoka, commercially available fungicides are used which are usually applied to banana plants by foliar application.
It was intended to determine whether isotianil is capable of controlling the black Sigatoka infection with reference to studies carried out on Cavendish bananas in Devao del Norte in the southern Philippines.
Compound I-2 as defined above was formulated as a suspension concentrate formulation (200 SC) with Banol mineral oil and water in a ratio of 0.5 l of compound I-2 (200 SC), 5 l of oil and 74 l of water. The emulsifier used was 0.05 l of Lutensol so as to maintain the oil/water mixture as a stable emulsion.
After the formulation procedure, the mixture was sprayed onto banana trees using engine-driven spray mist applicators which applied a total volume of 80 l/ha.
This was followed by eight applications at seven-day intervals between Aug. 28 and Oct. 16, 2008. The isotianil application rate was 50, 75 and 100 g of a.i./ha, respectively.
For comparison with the isotianil plots, one plot was left untreated, and a further plot was sprayed with Sico (difenconazole 250 SC), a commercially available fungicide which is used for controlling black Sigatoka. Sico was sprayed together with Banol oil and Lutensol at an application rate of 100 g of a.i./ha, as above.
Each plot consisted of two banana plants at the BBCH growth stage 1056-1100. Each treatment consisted of three replications.
After the application, the disease level on the banana leaves was determined according to several parameters which are defined by the “Stover method” (Stover, 1971 R. H. Stover, A proposed international scale for estimating intensity of banana leaf spot, Tropical Agriculture).
Youngest infected leaf (YLI): This parameter records which leaf of the plant was the youngest leaf to show initial symptoms of Sigatoka infection. This is important since this has a direct relationship with the degree of infection, since the youngest leaves are infected last. Under the test conditions, the plants produce approximately one new leaf per week.
The severity of the disease (SEV) describes the direct percentage of visual disease on the plant.
The youngest infected leaf and the severity of the disease were determined weekly after the first application. The data hereinbelow describe the results of the last determination measured at the end of the experiment, on Oct. 23, 2008. After the weekly determination, moreover, the data were compiled in the form of a graph, and the area under the disease progress curve (AUDPC) was calculated over the complete study period and is listed hereinbelow. Moreover, % severity was calculated as described by ABBOTT.

With `N#Cc1ccccc1NC(=O)c1snc(Cl)c1Cl` [Compound I-2, isotianil] the “SEV last determ. (severity of the disease)” value (50 g of a.i./ha) was 5.3%, the “YLI last determ. (youngest infected leaf)” value (50 g of a.i./ha) was 4 and the “SEV ABBOTT” value (50 g of a.i./ha) was 72.4%. The “SEV AUDPC” value (50 g of a.i./ha) was 314, the “YLI AUDPC” value (50 g of a.i./ha) was 223 and the “SEV last determ. (severity of the disease)” value (75 g of a.i./ha) was 5%. The “YLI last determ. (youngest infected leaf)” value (75 g of a.i./ha) was 4, the “SEV ABBOTT” value (75 g of a.i./ha) was 74% and the “SEV AUDPC” value (75 g of a.i./ha) was 285. For the same molecule, the “YLI AUDPC” value (75 g of a.i./ha) was 224, the “SEV last determ. (severity of the disease)” value (100 g of a.i./ha) was 5.3% and the “YLI last determ. (youngest infected leaf)” value (100 g of a.i./ha) was 4. The “SEV ABBOTT” value (100 g of a.i./ha) was 72.6%, the “SEV AUDPC” value (100 g of a.i./ha) was 313 and the “YLI AUDPC” value (100 g of a.i./ha) was 119.
